Test results taken from patent publication US12564554B2, “Co-amorphous forms of beta-lactoglobulin and a drug substance” (DISPERSOME IP APS, priority 2019, dated 2026).

assay: mDSC measurement of the glass transition temperature (Tg); assay type: physicochemical; details: freshly prepared, ball milled (Table 2)
Description: The mDSC thermograms of the samples were collected using a Discovery DSC (TA instruments, New Castle, USA) under a nitrogen gas flow of 50 ml/min. The samples containing Compound A, Compound B and IND were analysed at a heating rate of 2° C./min from 25° C. to 200° C., with an underlying modulation temperature amplitude of 0.2120° C. and a period of 40 s. For the remaining samples the same heating rate, amplitude and period were applied. Samples containing compounds APA, BDQ, RIF and VNX were heated from 25° C. to 250° C., and samples containing Compound RIT were heated from 0° C. to 170° C. A total of 4-8 mg sample powder was filled into aluminium Tzero pans and sealed with an aluminium Tzero lid. The glass transition temperature (Tg) was determined as the midpoint from the reversing heat flow signal.

Row | Tg | Compound
1 | 97.4 °C | CNC(=O)c1ccc(N2C(=S)N(c3cnc(C#N)c(C(F)(F)F)c3)C(=O)C23CCC3)cc1F [Pure amorphous APA, Apalutamide]
2 | 194.4 °C | CO[C@H]1/C=C/O[C@@]2(C)Oc3c(C)c(O)c4c(O)c(c5c(nc6cc(C)ccn65)c4c3C2=O)NC(=O)/C(C)=C\C=C\[C@H](C)[C@H](O)[C@@H](C)[C@@H](O)[C@@H](C)[C@H](OC(C)=O)[C@@H]1C [Pure amorphous RIF, rifaximin]
3 | 41.7 °C | CC(C)c1nc(CN(C)C(=O)N[C@H](C(=O)N[C@@H](Cc2ccccc2)C[C@H](O)[C@H](Cc2ccccc2)NC(=O)OCc2cncs2)C(C)C)cs1 [Pure amorphous RIT, ritonavir]
4 | 79.4 °C | bedaquiline fumarate [Pure amorphous BDQ]
